The results in this text go back to ChEMBL document CHEMBL5385957, “Pleonotoquinones, Cytotoxic Oxepinenaphthoquinones from Pleonotoma jasminifolia” (J Nat Prod, 2024).

In series [1] the test system is HepG2. Put plainly: Cytotoxicity against human HepG2 cells assessed as cell growth inhibition. The series is classed as functional, cell-based.
The nature of series [2]: Cytotoxicity against human MRC5 cells assessed as cell growth inhibition. The series is classed as toxicity, cell-based.
The subject of series [3] is HCT-116. Kind of series: Cytotoxicity against human HCT-116 cells assessed as cell growth inhibition. Format: functional, cell-based.
A short description of series [4]: Selectivity index, ratio of IC50 for human MRC5 cells to IC50 for human HCT-116 cells. The series is classed as toxicity. The conditions noted are these: MRC5 cells versus HCT-116 cells, read-out: Ratio IC50.
Series [5] can be described thus: Selectivity index, ratio of IC50 for human MRC5 cells to IC50 for human HepG2 cells. The series is classed as toxicity. The conditions noted are these: MRC5 cells versus HepG2 cells, read-out: Ratio IC50.

Some results are limits rather than exact numbers.

The IC50 is the concentration needed to halve the response being measured. In the case of `COc1cccc2c1C(=O)c1c(O)c3c(c(O)c1C2=O)C[C@@](O)(C(=O)CO)C[C@@H]3O[C@H]1C[C@H](N)[C@H](O)[C@H](C)O1` [DOXORUBICIN], the IC50 stood at 0.7 µM in series [1] and 3.5 µM in series [2].

As for `COc1ccc2c(=O)c3cccc(C)oc=3c(=O)c2c1OC`, the IC50 in series [3] was 4.3 µM; in series [1], 6.4 µM; in series [2], over 10 µM. Besides, the selectivity ratio in series [4] amounted to 2.9; in series [5], 1.9.

For the compound `COc1c(O)ccc2c(=O)c3cccc(C)oc=3c(=O)c12`, the IC50 in series [3] was determined as 2.6 µM; in series [1], 1.9 µM; in series [2] it was 8.2 µM. The selectivity ratio amounted to 3.1 in series [4] and 4.1 in series [5].

`COc1ccc2c(c1OC)C(=O)c1cc(C)ccc1C2=O`: the IC50 in series [3], in series [1] and in series [2] was over 10 µM each time.

For the compound `COc1c(O)ccc2c1C(=O)c1cc(C)ccc1C2=O`, the IC50 in series [3], in series [1] and in series [2] was over 10 µM each time.
